Results from ChEMBL document CHEMBL1201862, “PubChem BioAssay data set” (2004).
Active and inactive are the calls of the source.

How the values were obtained:
CAAX prenyl protease 1 = target: T1, CAAX prenyl protease 1 (Saccharomyces cerevisiae S288c, UniProt P47154); experiment: Ste24 protease inhibitors, dose response, biochemical, S. cerevisiae, plate reader, cherry-pick (AID 488815)
T1 sequence (P47154 whole entry): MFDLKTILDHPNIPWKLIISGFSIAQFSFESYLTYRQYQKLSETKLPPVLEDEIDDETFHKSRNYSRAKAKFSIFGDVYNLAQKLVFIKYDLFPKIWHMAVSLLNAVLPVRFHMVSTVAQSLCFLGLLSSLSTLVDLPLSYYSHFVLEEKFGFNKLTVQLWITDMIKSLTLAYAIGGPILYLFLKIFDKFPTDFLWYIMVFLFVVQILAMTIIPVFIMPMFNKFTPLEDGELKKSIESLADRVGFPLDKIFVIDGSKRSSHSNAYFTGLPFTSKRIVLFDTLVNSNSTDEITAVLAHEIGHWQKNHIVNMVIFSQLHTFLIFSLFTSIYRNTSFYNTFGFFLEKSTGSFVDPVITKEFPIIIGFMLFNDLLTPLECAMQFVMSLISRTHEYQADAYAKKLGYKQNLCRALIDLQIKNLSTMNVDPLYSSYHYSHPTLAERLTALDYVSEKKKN

Trypsin = Trypsin (Sus scrofa, UniProt P00761); experiment: porcine trypsin inhibitors, dose response, selectivity assay for Rce1 protease inhibitor project, biochemical, quenched peptide fluorescence, cherry-pick (AID 488789)
CAAX prenyl protease 2 = target: T2, CAAX prenyl protease 2 (Homo sapiens, UniProt Q9Y256); experiment: human Rce1 protease inhibitors, dose response, biochemical, yeast membranes, quenched-peptide fluorescence, cherry-pick (AID 588849)
T2 sequence (Q9Y256 whole entry): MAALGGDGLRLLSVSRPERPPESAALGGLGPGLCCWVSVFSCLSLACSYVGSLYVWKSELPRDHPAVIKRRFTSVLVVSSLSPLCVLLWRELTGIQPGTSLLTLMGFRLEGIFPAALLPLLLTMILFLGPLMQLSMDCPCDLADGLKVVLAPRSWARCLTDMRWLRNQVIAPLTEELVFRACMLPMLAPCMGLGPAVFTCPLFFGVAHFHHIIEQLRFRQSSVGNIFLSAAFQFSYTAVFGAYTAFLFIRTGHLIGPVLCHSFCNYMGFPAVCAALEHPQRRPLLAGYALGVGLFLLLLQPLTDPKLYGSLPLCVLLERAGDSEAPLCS

[1] = target: Eukaryotic translation initiation factor 4E (Mus musculus, UniProt P63073); experiment: eIF4E–eIF4G protein interaction inhibitors, dose response, biochemical, TR-FRET (AID 855); type: functional;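 further: potency for disrupting eIF4E binding to eIF4GI seen as loss of FRET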
Beta-galactosidase = Beta-galactosidase (Escherichia coli, UniProt Q8VNN2); experiment: beta-galactosidase enzyme inhibitors and activators, dose response, artefact control for CCR6 antagonist project, biochemical, E. coli enzyme, set 3 (AID 504712); type: functional
Nonstructural protein 1 = Nonstructural protein 1 (Influenza A virus, UniProt Q194T2); type: functional, Influenza A virus (A/California/07/2009(H1N1))
[2] = NIH-3T3 fibroblast cytotoxicity, dose response, cytotoxicity control, cell-based, fluorescence, Alamar Blue, secondary assay (AID 2327); type: functional;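 further: NIH-3T3 mouse fibroblasts cultured with fluconazole at 8 µg/mL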
Cytochrome P450 3A4 = Cytochrome P450 3A4 (Homo sapiens, UniProt P08684);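 further: CYP3A4 tested as one member of a cytochrome P450 panel screen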
Cytochrome P450 1A2 = target: T3, Cytochrome P450 1A2 (Homo sapiens, UniProt P05177);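 further: PubChem cytochrome P450 panel assay, CYP1A2 panel member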
T3 sequence (P05177 whole entry): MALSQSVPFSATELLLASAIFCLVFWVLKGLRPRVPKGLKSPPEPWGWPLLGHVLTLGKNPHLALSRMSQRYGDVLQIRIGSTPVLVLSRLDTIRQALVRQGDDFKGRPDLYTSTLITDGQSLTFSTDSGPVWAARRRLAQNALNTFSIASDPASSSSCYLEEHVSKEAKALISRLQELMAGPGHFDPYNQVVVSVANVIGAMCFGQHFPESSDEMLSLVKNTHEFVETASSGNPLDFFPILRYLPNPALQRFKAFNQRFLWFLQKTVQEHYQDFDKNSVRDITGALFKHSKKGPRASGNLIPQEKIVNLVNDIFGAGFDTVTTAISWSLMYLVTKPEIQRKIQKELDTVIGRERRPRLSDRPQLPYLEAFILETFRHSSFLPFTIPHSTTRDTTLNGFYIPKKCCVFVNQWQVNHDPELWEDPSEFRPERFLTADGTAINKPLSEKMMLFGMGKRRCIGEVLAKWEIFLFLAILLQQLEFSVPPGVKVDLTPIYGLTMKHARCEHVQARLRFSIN

[3] = cytotoxicity in HEK-293T cells, dose response, cytotoxicity control for BCR NF-kB inhibitor project, luminescence, B-cell screen hits (AID 489021); type: functional, cell-based;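 further: HEK-293T cells carrying an NF-kB luciferase reporter; cells exposed to compound for about 14 hours before viability readout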
[4] = target: T4, Microphthalmia-associated transcription factor (Homo sapiens, UniProt O75030); experiment: TRPM1 promoter luciferase signal decrease, dose response, MITF inhibitor project, cell-based, SK-MEL-5, cherry-picked, set 3 (AID 493073); type: functional
T4 sequence (O75030 whole entry): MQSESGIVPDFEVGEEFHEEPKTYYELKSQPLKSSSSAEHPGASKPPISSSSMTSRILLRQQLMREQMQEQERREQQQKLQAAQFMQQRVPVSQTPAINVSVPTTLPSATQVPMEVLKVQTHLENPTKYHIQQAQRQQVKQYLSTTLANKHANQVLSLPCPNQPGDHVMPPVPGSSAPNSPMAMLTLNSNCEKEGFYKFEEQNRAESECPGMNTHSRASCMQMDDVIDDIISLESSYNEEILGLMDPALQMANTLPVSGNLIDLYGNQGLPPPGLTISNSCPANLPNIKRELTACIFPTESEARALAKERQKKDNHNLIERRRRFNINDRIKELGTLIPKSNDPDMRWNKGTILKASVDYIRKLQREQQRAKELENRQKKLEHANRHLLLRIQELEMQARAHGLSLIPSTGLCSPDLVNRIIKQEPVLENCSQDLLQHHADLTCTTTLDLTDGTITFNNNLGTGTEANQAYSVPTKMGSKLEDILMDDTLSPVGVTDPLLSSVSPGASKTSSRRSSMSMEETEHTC

[5] = target: Neurotensin receptor type 1 (Homo sapiens, UniProt P30989); type: functional;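 further: Image-based confirmatory dose-response assay measuring agonist activity at NTR1; NTR1-expressing U2OS osteosarcoma cells imaged for beta-arrestin GFP spot formation; agonist potency where compounds increase beta-arrestin recruitment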
[6] = HEp-2 cell cytotoxicity, dose response, cytotoxicity control for RSV inhibitor project, HTS (AID 2410); type: functional; conditions: human respiratory syncytial virus
[7] = target: T5, Replicative DNA helicase DnaB (Mycobacterium tuberculosis, UniProt P9WMR3); experiment: DnaB intein splicing inhibitors, dose response, biochemical, cell-free fluorescence (AID 449749); type: functional
T5 sequence (P9WMR3 whole entry): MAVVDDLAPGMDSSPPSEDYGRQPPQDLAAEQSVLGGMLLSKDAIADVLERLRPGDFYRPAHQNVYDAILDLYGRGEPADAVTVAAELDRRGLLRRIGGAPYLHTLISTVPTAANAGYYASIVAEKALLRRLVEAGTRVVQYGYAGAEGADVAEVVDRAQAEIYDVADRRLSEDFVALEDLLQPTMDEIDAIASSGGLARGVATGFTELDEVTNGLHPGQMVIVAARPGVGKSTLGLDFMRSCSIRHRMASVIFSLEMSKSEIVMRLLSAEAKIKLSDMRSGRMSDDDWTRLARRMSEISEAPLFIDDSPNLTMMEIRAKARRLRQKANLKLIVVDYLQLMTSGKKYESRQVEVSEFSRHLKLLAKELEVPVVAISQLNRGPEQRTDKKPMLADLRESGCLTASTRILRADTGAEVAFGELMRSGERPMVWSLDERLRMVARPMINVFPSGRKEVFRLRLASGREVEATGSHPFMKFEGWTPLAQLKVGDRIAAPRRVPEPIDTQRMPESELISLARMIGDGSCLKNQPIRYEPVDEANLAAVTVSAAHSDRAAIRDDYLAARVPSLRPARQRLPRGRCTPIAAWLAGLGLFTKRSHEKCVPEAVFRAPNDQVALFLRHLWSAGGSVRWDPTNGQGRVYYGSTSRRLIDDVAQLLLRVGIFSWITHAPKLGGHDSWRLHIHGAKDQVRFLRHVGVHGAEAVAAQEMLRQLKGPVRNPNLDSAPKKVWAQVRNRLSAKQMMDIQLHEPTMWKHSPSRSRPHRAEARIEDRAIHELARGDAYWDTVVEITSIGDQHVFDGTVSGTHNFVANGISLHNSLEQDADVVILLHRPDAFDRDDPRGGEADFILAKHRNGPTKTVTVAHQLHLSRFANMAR

Protein RecA = target: T6, Protein RecA (Mycobacterium tuberculosis, UniProt P9WHJ3); experiment: Fluorescence Cell-Free Homogeneous Dose Retest to Identify Inhibitors of RecA-Intein Splicing Activity. [Related pubchem assays (depositor defined):AID2097, AID2223, AID489010, AID492950]; type: functional
T6 sequence (P9WHJ3 whole entry): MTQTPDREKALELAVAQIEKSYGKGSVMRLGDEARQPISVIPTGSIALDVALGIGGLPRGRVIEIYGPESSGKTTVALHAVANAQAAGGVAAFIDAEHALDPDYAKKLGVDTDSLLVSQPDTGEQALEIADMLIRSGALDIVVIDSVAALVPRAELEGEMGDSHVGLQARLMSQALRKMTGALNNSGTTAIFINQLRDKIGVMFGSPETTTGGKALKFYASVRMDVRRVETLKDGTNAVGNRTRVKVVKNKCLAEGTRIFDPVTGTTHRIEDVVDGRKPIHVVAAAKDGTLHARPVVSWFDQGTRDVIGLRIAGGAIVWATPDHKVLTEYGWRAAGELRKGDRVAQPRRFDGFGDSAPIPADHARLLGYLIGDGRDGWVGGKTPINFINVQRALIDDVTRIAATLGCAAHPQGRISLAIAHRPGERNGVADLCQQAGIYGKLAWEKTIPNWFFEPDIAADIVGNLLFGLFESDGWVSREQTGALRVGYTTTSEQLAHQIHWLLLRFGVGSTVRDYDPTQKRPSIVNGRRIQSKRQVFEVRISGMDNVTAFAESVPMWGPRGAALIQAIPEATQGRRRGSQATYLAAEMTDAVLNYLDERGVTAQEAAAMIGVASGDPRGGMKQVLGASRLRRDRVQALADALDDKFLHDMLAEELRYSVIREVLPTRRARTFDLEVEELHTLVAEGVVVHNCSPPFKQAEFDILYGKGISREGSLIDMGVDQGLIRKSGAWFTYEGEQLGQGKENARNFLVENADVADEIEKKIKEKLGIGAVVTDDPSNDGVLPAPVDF

[8] = target: T7, Histone-lysine N-methyltransferase NSD2 (Homo sapiens, UniProt O96028); type: biochemical
T7 sequence (O96028 whole entry): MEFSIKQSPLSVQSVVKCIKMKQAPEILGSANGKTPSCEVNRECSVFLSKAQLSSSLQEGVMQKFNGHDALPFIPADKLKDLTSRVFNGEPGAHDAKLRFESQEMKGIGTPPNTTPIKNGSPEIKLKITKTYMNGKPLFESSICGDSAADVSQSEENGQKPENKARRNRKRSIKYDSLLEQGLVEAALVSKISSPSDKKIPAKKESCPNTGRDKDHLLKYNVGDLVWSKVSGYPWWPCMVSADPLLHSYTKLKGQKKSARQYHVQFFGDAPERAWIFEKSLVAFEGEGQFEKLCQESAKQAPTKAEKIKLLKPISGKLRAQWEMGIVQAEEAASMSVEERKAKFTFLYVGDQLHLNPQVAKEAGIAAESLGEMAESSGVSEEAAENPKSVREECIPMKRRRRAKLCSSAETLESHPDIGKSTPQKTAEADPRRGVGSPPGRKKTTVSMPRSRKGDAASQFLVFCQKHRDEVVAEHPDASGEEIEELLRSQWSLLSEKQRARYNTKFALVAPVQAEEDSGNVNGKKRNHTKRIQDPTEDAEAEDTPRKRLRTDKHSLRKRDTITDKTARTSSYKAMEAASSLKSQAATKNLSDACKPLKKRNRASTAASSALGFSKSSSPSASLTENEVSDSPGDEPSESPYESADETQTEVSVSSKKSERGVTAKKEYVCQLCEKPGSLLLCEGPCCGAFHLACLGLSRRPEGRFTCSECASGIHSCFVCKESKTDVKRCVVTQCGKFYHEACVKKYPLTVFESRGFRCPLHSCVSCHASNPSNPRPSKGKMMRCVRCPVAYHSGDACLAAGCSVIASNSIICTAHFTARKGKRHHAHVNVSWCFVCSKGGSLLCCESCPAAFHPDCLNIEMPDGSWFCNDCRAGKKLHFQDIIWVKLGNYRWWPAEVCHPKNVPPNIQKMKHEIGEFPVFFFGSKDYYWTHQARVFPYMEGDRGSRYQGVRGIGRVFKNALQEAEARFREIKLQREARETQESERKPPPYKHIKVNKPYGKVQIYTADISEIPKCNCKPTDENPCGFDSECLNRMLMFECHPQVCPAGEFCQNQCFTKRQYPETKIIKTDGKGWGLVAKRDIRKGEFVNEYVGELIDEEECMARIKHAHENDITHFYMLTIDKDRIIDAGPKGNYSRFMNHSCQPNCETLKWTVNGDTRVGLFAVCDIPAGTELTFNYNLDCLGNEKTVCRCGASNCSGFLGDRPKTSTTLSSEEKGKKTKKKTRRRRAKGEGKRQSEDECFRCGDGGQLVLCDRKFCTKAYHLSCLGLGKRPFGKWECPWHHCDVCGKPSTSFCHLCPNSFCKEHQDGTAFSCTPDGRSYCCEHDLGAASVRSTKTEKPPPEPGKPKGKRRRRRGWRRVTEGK

Chain of Trypsin (P00761 whole entry): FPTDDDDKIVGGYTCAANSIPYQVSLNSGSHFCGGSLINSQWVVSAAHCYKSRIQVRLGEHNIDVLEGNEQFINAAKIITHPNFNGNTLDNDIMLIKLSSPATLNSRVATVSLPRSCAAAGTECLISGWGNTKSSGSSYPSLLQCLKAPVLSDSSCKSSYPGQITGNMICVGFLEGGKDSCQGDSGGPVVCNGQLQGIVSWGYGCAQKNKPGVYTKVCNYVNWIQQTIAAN
Chain of Eukaryotic translation initiation factor 4E (P63073 whole entry): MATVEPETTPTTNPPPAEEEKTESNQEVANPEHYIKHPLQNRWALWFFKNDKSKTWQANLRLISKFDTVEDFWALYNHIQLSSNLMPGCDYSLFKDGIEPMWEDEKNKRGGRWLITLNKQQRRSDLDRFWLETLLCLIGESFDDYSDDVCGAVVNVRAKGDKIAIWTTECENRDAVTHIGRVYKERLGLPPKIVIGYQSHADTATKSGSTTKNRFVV
Chain of Beta-galactosidase (Q8VNN2 whole entry): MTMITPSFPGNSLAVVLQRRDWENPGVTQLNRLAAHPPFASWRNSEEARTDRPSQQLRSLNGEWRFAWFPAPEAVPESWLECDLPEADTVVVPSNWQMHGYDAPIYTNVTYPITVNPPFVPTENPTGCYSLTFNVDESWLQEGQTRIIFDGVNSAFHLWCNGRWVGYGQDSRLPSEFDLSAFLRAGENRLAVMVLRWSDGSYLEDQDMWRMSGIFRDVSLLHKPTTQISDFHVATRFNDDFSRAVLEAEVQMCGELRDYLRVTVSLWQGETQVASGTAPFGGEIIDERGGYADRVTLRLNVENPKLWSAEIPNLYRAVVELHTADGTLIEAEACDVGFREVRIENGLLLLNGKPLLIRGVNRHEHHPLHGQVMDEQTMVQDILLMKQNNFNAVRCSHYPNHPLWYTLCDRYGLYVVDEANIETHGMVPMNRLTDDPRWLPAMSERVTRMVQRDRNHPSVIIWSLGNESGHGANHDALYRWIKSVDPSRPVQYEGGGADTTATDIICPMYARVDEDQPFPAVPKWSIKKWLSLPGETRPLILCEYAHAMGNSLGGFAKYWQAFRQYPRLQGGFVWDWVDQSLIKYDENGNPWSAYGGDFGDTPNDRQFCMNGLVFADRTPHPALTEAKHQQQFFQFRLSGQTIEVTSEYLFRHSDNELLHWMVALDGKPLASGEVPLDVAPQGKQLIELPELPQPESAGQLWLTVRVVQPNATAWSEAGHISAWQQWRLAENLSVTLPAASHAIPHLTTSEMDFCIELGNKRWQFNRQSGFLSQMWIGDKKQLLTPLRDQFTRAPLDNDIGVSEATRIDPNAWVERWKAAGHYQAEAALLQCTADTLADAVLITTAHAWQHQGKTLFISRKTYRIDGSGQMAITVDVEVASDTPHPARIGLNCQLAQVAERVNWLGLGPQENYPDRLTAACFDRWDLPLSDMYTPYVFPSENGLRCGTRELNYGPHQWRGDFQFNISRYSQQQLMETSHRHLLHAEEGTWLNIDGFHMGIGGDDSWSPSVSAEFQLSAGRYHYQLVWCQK
Chain of Cytochrome P450 3A4 (P08684 whole entry): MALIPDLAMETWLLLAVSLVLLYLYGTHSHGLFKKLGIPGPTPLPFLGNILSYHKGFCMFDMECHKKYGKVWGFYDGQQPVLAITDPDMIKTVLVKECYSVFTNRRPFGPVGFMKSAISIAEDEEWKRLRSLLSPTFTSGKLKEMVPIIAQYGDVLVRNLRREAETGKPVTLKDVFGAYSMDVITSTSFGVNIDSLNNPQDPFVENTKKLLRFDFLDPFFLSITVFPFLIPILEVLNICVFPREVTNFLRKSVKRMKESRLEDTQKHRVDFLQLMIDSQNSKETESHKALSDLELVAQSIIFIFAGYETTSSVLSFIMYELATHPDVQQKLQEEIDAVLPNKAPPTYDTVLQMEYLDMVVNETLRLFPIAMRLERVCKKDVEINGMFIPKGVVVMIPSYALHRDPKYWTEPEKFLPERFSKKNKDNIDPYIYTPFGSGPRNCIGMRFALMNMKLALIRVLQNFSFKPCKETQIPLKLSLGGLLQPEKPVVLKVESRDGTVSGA
Chain of Neurotensin receptor type 1 (P30989 whole entry): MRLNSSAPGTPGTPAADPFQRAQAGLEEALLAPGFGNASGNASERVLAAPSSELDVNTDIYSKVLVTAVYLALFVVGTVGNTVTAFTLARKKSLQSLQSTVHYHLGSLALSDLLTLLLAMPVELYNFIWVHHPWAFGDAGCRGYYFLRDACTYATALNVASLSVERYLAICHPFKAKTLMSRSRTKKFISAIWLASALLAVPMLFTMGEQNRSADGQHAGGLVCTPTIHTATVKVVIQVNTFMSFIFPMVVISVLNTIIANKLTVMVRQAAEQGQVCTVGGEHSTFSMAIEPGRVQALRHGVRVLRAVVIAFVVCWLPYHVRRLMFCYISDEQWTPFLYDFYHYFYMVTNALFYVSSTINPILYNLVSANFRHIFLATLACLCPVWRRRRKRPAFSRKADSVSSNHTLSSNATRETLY
Chain of Nonstructural protein 1 (Q194T2 whole entry): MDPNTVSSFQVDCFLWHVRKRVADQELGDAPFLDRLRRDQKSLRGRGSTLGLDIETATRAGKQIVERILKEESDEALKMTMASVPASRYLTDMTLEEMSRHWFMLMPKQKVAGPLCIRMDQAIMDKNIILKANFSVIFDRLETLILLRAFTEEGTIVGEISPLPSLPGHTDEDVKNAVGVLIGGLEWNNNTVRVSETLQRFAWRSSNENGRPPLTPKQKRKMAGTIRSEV

With `COc1ccc(CNC(=O)c2ccccc2NS(C)(=O)=O)cc1` the AC50 (CAAX prenyl protease 1) was 5.47 µM (active), the AC50 (Trypsin) was 12.4 µM (active) and the AC50 (CAAX prenyl protease 2) was 11.7 µM (active).
With `CCN(CC)c1ccc(NC(=O)CCCOc2cccc(C)c2)cc1` the IC50 [1] was 50 µM (inactive).
With `Cc1c(N=NC2=C(O)CC(C)(C)CC2=O)c(=O)n(-c2ccccc2)n1C` the IC50 (Beta-galactosidase) was > 66.6 µM (inactive), the IC50 (Nonstructural protein 1) was 3.63 µM (active) and the EC50 [2] was > 160 µM (inactive).
For `CCOc1c2ccc(C(=O)NCc3ccco3)cc2nn1CCOC`, the AC50 (Cytochrome P450 3A4) was 22.4 µM (inconclusive), the AC50 (CAAX prenyl protease 1) was 11.5 µM (active) and the AC50 (Cytochrome P450 1A2) was 15.8 µM (inconclusive). The AC50 (Trypsin) was 16.5 µM (active) and the AC50 (CAAX prenyl protease 2) was 12.3 µM (active).
For `Cc1cc(C)cc(N2C(=O)NC(=O)/C(=C\c3cccn3-c3ccccc3)C2=O)c1`, the IC50 [3] was > 80 µM (inactive), the AC50 [4] was 13.8 µM (active) and the EC50 [5] was 10.3 µM (active). For the same molecule, the CC50 [6] was 19.9 µM (active).
With `CC(=O)c1c(C)nc(-c2ccc(Cl)cc2)nc1/N=C/N(C)C` the IC50 [1] was 40 µM (inactive), the AC50 [7] was > 380 µM (inactive) and the EC50 (Protein RecA) was > 380 µM (inactive). The AC50 [8] was > 20 µM (inactive).
For `CN(C)/C=N/c1c(C#N)cnn1-c1ncnc2sc(-c3ccccc3)cc12`, the AC50 (Trypsin) was 8.06 µM (active) and the AC50 (CAAX prenyl protease 2) was 19.1 µM (active).
